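Step 1: Grow cells in 96-well plates. Step 2: Expose to compound for 48 hours at 5 concentrations. Step 3: Interpolate endpoints linearly; if unreached, use highest concentration. GI50 = concentration required for 50% inhibition of growth. TGI is the concentration that stops growth completely.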
These compounds were tested on MDA-MB-468 breast (assay: DTP human tumour cell line panel, 48 h).

Structure (SMILES) | GI50 | TGI
COc1ccc(N(CC(=O)NCCC[Te]c2ccccc2)C(=O)CCSC2=C(C)C(=O)c3ccccc3C2=O)cc1 | 1670 nM | 3390 nM
C/C(CC(=O)NNc1ccc([N+](=O)[O-])cc1)=N\Nc1ccc([N+](=O)[O-])cc1 | 28100 nM | > 100000 nM
CCN(CC)c1ccc2c(c1)Oc1nc(N)c(C#N)c(N)c1C2Sc1ccc(C)cc1 (configuration not stated) | 1620 nM | 3140 nM
O=C1OCc2c1cc(F)cc2[N+](=O)[O-] | > 100000 nM | > 100000 nM
O=C(Nc1n[nH]c2nc(-c3ccco3)ccc12)C1CC1 | > 25000 nM | > 25000 nM
CCN(CC)CCOc1ccc(/C(=C(\C)Cc2ccc(OC)cc2)c2ccc(OC(=O)NCc3ccccc3)cc2)cc1 | 1900 nM | 3960 nM
NC1=C(Cl)C(=O)c2ccc(S(N)(=O)=O)cc2C1=O | 181 nM | 486 nM
COc1ccc(-c2nn(-c3cccc(NC(=O)Nc4ccc(Cl)c(C(F)(F)F)c4)c3)cc2-c2ccncc2)cc1Cl | 1630 nM | 6780 nM
O=C(O)C(CSC(c1ccccc1)(c1ccccc1)c1ccccc1)N=Cc1cccs1 (configuration not stated) | 232 nM | 922 nM
O=C1/C(=C\C(Cl)=C/c2ccc([N+](=O)[O-])cc2)SC(=S)N1CCc1ccc(O)cc1 | 405 nM | 1740 nM
COc1ccc(-c2cnc3ccnn3c2-c2cc(OC)c(OC)c(OC)c2)cc1 | 2640 nM | > 100000 nM
CN[C@]12CC3(C=CC(=O)C=C3)O[C@@]1(Cc1ccc(OC)cc1)N(C)C(=O)N2 | 1250 nM | 3500 nM
C=C1C(=O)O[C@H]2[C@H]1CC/C(COC(=O)CCCCCCCCC(=O)OC/C1=C/CC[C@@]3(C)O[C@H]3[C@H]3OC(=O)C(=C)[C@@H]3CC1)=C\CC[C@@]1(C)O[C@@H]21 | 2270 nM | 5150 nM
COc1cc(/C=C2\CN(C)C/C(=C\c3cc(OC)c(OC)c(OC)c3)C2=O)cc(OC)c1OC | 266 nM | 849 nM
c1cc(OCCN2CCCCCC2)ccc1CNc1ccc2nc(CCC3CCCCC3)[nH]c2c1 | 1550 nM | 4020 nM
CN1CCC[C@@H]1CCO[C@](C)(c1ccccc1)c1ccc(Cl)cc1 | 1660 nM | 3510 nM

Structure (SMILES) | GI50 | TGI
COc1ccc(/C(C)=C(\c2ccc(Cl)cc2)c2ccc(OCCN3CCCC3)cc2)cc1F | 3350 nM | 7180 nM
CN(C)CCCN(c1nc(C(Cl)(Cl)Cl)ns1)c1nc(C(Cl)(Cl)Cl)ns1 | 1660 nM | 3110 nM
Cc1c2c(nn1C(=O)c1nn(-c3ccc(Cl)cc3)cc1O)-c1ccccc1CC2 | 250 nM | > 58200 nM
CCCc1cc2cc(-n3nc(C)c4c3CC(C)(C)CC4=O)cc(NC3CCC(O)CC3)c2c(=O)[nH]1 (configuration not stated) | 47.5 nM | > 100000 nM
CCOC(=O)/C(=C/c1ccc([N+](=O)[O-])cc1)C(=O)c1ccccc1 | 2310 nM | 4600 nM
O=C1c2cc3c(cc2-c2c1c1ccc(Cl)cc1c(=O)n2C[C@H](O)[C@@H](O)[C@H](O)CO)OCO3 | 18.9 nM | 45.9 nM
COc1cc(/C=C/C(=O)c2ccc(Nc3ncnc4ccccc34)cc2)cc(OC)c1 | 2200 nM | 10700 nM
O=C1C(=O)c2ccccc2-c2ccccc21 | 1700 nM | 3530 nM
O=C(O)c1ccc2c(c1Nc1ccccc1)C(=O)c1ccccc1C2=O | 31800 nM | > 100000 nM
CCCCCCCC/C=C/CCCCCCCC1=NC(C)(C)CN1C(C)C | 1310 nM | 2700 nM
O=C(Nc1ccccc1)Nc1cccc(-n2cc(-c3ccncc3)c(-c3ccc(O)c(Cl)c3)n2)c1 | 3220 nM | 12200 nM
Cc1cccc2c(N=Nc3ccc(S(N)(=O)=O)cc3)c(O)[nH]c12 | > 25000 nM | > 25000 nM
C=C1C(=O)O[C@H]2[C@H]1CC/C(Cn1cc(Cn3ccc4ccccc43)nn1)=C\CC[C@@]1(C)O[C@@H]21 | 717 nM | 2480 nM
N#CC(=S)Nc1ccc(Cl)c(Cl)c1 | 6100 nM | 52200 nM
COc1ccc(/C=C2\CN(Cc3cn(CCCNc4ccnc5cc(Cl)ccc45)nn3)C/C(=C\c3ccc(OC)c(OC)c3)C2=O)cc1OC | 772 nM | 2490 nM

Reference: PubChem BioAssay (NCI)
